Laboratory results from patent publication US6437128B1, “Cribrostatins 3-5” (Arizona Board of Regents, priority 2001, dated 2002).

What was measured:
[1] = test system: P388 lymphocytic leukemia; assay: in vitro murine P388 lymphocytic leukemia (PS) cell growth inhibition; assay type: cell-based
From the text: The fractions obtained from the 1988-89 recollection of Cribrochalina so. (See: Pettit, G. R.; Collins, J. C.; Herald, D. L.; Doubek, D. L.; Boyd, M. R.; Schmidt, J. M.; Hooper, J. N. A.; Tackett, L. P. Can. J. Cheim. 1992, 70, 1170-1175) beginning with the 195 g dichloromethane partition fraction were re-examined guided by bioassay results using the murine P388 lymphocytic leukemia.
(§1) Individual cell line response values are provided in the Experimental.

[2] = test system: NCI 60-cell in vitro panel; assay: NCI 60-cell in vitro panel, mean panel; assay type: cell-based, human; settings: average ±SEM from the 40 cell lines that yielded GI50 values for both 4a and 5
From the text: as §1

[3] = test system: CCRF-CEM; assay: NCI 60-cell screen; assay type: cell-based, human; settings: averaged, quadruplicate, upper limit 10^−5 M
[4] = test system: HL-60 (TB); assay: NCI 60-cell screen; assay type: cell-based, human; settings: averaged, quadruplicate, upper limit 10^−5 M
[5] = test system: K-562; assay: NCI 60-cell screen; assay type: cell-based, human; settings: averaged, quadruplicate, upper limit 10^−5 M
[6] = test system: MOLT-4; assay: NCI 60-cell screen; assay type: cell-based, human; settings: averaged, quadruplicate, upper limit 10^−5 M
[7] = test system: RPMI-8226; assay: NCI 60-cell screen; assay type: cell-based, human; settings: averaged, quadruplicate, upper limit 10^−5 M
[8] = test system: SR; assay: NCI 60-cell screen; assay type: cell-based, human; settings: averaged, quadruplicate, upper limit 10^−5 M
[9] = test system: A549/ATCC; assay: NCI 60-cell screen; assay type: cell-based, human; settings: averaged, quadruplicate, upper limit 10^−5 M
[10] = test system: HOP-62; assay: NCI 60-cell screen; assay type: cell-based, human; settings: averaged, quadruplicate, upper limit 10^−5 M
[11] = test system: HOP-92; assay: NCI 60-cell screen; assay type: cell-based, human; settings: averaged, quadruplicate, upper limit 10^−5 M
[12] = test system: NCI-H226; assay: NCI 60-cell screen; assay type: cell-based, human; settings: averaged, quadruplicate, upper limit 10^−5 M
[13] = test system: NCI-H460; assay: NCI 60-cell screen; assay type: cell-based, human; settings: averaged, quadruplicate, upper limit 10^−5 M
[14] = test system: NCI-H522; assay: NCI 60-cell screen; assay type: cell-based, human; settings: averaged, quadruplicate, upper limit 10^−5 M
[15] = test system: COLO 205; assay: NCI 60-cell screen; assay type: cell-based, human; settings: averaged, quadruplicate, upper limit 10^−5 M
[16] = test system: KM 12; assay: NCI 60-cell screen; assay type: cell-based, human; settings: averaged, quadruplicate, upper limit 10^−5 M
[17] = test system: SW-620; assay: NCI 60-cell screen; assay type: cell-based, human; settings: averaged, quadruplicate, upper limit 10^−5 M
[18] = test system: SF-268; assay: NCI 60-cell screen; assay type: cell-based, human; settings: averaged, quadruplicate, upper limit 10^−5 M
[19] = test system: SF-295; assay: NCI 60-cell screen; assay type: cell-based, human; settings: averaged, quadruplicate, upper limit 10^−5 M
[20] = test system: SF-539; assay: NCI 60-cell screen; assay type: cell-based, human; settings: averaged, quadruplicate, upper limit 10^−5 M
[21] = test system: SNB-75; assay: NCI 60-cell screen; assay type: cell-based, human; settings: averaged, quadruplicate, upper limit 10^−5 M
[22] = test system: U251; assay: NCI 60-cell screen; assay type: cell-based, human; settings: averaged, quadruplicate, upper limit 10^−5 M
[23] = test system: LOX IMVI; assay: NCI 60-cell screen; assay type: cell-based, human; settings: averaged, quadruplicate, upper limit 10^−5 M
[24] = test system: MALME-3M; assay: NCI 60-cell screen; assay type: cell-based, human; settings: averaged, quadruplicate, upper limit 10^−5 M
[25] = test system: SK-MEL-5; assay: NCI 60-cell screen; assay type: cell-based, human; settings: averaged, quadruplicate, upper limit 10^−5 M
[26] = test system: UACC-62; assay: NCI 60-cell screen; assay type: cell-based, human; settings: averaged, quadruplicate, upper limit 10^−5 M
[27] = test system: IGROV1; assay: NCI 60-cell screen; assay type: cell-based, human; settings: averaged, quadruplicate, upper limit 10^−5 M
[28] = test system: OVCAR-3; assay: NCI 60-cell screen; assay type: cell-based, human; settings: averaged, quadruplicate, upper limit 10^−5 M
[29] = test system: OVCAR4; assay: NCI 60-cell screen; assay type: cell-based, human; settings: averaged, quadruplicate, upper limit 10^−5 M
[30] = test system: OVCAR-8; assay: NCI 60-cell screen; assay type: cell-based, human; settings: averaged, quadruplicate, upper limit 10^−5 M
[31] = test system: 786-O; assay: NCI 60-cell screen; assay type: cell-based, human; settings: averaged, quadruplicate, upper limit 10^−5 M
[32] = test system: ACHN; assay: NCI 60-cell screen; assay type: cell-based, human; settings: averaged, quadruplicate, upper limit 10^−5 M
[33] = test system: RXF-393; assay: NCI 60-cell screen; assay type: cell-based, human; settings: averaged, quadruplicate, upper limit 10^−5 M
[34] = test system: SN12C; assay: NCI 60-cell screen; assay type: cell-based, human; settings: averaged, quadruplicate, upper limit 10^−5 M
[35] = test system: PC-3; assay: NCI 60-cell screen; assay type: cell-based, human; settings: averaged, quadruplicate, upper limit 10^−5 M
[36] = test system: MCF7; assay: NCI 60-cell screen; assay type: cell-based, human; settings: averaged, quadruplicate, upper limit 10^−5 M
[37] = test system: MCF7/ADR-RES; assay: NCI 60-cell screen; assay type: cell-based, human; settings: averaged, quadruplicate, upper limit 10^−5 M
[38] = test system: MDA-MB-231/ATCC; assay: NCI 60-cell screen; assay type: cell-based, human; settings: averaged, quadruplicate, upper limit 10^−5 M
[39] = test system: HS578T; assay: NCI 60-cell screen; assay type: cell-based, human; settings: averaged, quadruplicate, upper limit 10^−5 M
[40] = test system: MDA-MB-435; assay: NCI 60-cell screen; assay type: cell-based, human; settings: averaged, quadruplicate, upper limit 10^−5 M
[41] = test system: MDA-N; assay: NCI 60-cell screen; assay type: cell-based, human; settings: averaged, quadruplicate, upper limit 10^−5 M
[42] = test system: T-47D; assay: NCI 60-cell screen; assay type: cell-based, human; settings: averaged, quadruplicate, upper limit 10^−5 M
[43] = test system: BXPC-3 (Pancreas-a); assay: ASU-CRI minipanel of human cancer cell lines; assay type: cell-based; settings: Pancreas-a BXPC-3
From the text: as §1

[44] = test system: DU-145 (Prostate); assay: ASU-CRI minipanel of human cancer cell lines; assay type: cell-based; settings: Prostate DU-145
From the text: as §1

[45] = test system: KM20L2 (Colon); assay: ASU-CRI minipanel of human cancer cell lines; assay type: cell-based
From the text: as §1

[46] = test system: NCI-H460 (Lung-NSC); assay: ASU-CRI minipanel of human cancer cell lines; assay type: cell-based
From the text: as §1

[47] = test system: OVCAR-3 (Ovarian); assay: ASU-CRI minipanel of human cancer cell lines; assay type: cell-based; settings: Ovarian OVCAR-3
From the text: as §1

[48] = test system: SF-295 (CNS); assay: ASU-CRI minipanel of human cancer cell lines; assay type: cell-based; settings: CNS SF-295
From the text: as §1

[49] = test system: Candida albicans (ATCC 90028); assay: Antimicrobial disk diffusion; assay type: cell-based
[50] = test system: Cryptococcus neoformans (ATCC 90112); assay: Antimicrobial disk diffusion; assay type: cell-based
[51] = test system: Micrococcus luteus (Presque Isle 456); assay: Antimicrobial disk diffusion; assay type: cell-based
[52] = test system: Staphylococcus aureus (ATCC 29213); assay: Antimicrobial disk diffusion; assay type: cell-based
[53] = test system: Enterococcus faecalis (ATCC 29212); assay: Antimicrobial disk diffusion; assay type: cell-based
[54] = test system: Bacillus subtilis (Presque Isle 620); assay: Antimicrobial disk diffusion; assay type: cell-based
[55] = test system: Streptococcus pneumoniae (ATCC 6303); assay: Antimicrobial disk diffusion; assay type: cell-based
[56] = test system: Stenotrophomonas maltophilia (ATCC 13637); assay: Antimicrobial disk diffusion; assay type: cell-based
[57] = test system: Escherichia coli (ATCC 25922); assay: Antimicrobial disk diffusion; assay type: cell-based
[58] = test system: Enterobacter cloacae (ATCC 13047); assay: Antimicrobial disk diffusion; assay type: cell-based
[59] = test system: Neisseria gonorrhoeae (ATCC 49226); assay: Antimicrobial disk diffusion; assay type: cell-based
[60] = test system: Penicillin-resistant N. gonorrhoeae (clinical isolate); assay: Antimicrobial disk diffusion; assay type: cell-based

Molecule: cribrostatin 3
- GI50 ([1]; Mouse Leukemia P388): 2.49 mg/L
- PS ED50 (P388 ED50) ([1]; in vitro P388 lymphocytic leukemia): 2.5 mg/L
- GI50 [2]: 4.27 µM
- negative log10 GI50 [3]: 5.37
- negative log10 GI50 [4]: 5.51
- negative log10 GI50 [5]: 5.13
- negative log10 GI50 [6]: 5.31
- negative log10 GI50 [7]: 5.07
- negative log10 GI50 [8]: 5.47
- negative log10 GI50 [9]: 5.46
- negative log10 GI50 [10]: 5.27
- negative log10 GI50 [11]: 5.02
- negative log10 GI50 [12]: 5.15
- negative log10 GI50 [13]: 5.52
- negative log10 GI50 [14]: 5.41
- negative log10 GI50 [15]: 5.23
- negative log10 GI50 [16]: 5.31
- negative log10 GI50 [17]: 5.44
- negative log10 GI50 [18]: 5.20
- negative log10 GI50 [19]: 5.44
- negative log10 GI50 [20]: 5.32
- negative log10 GI50 [21]: 5.32
- negative log10 GI50 [22]: 5.49
- negative log10 GI50 [23]: 5.39
- negative log10 GI50 [24]: 6.21
- negative log10 GI50 [25]: 5.96
- negative log10 GI50 [26]: 5.60
- negative log10 GI50 [27]: 5.14
- negative log10 GI50 [28]: 5.74
- negative log10 GI50 [29]: 5.28
- negative log10 GI50 [30]: 5.06
- negative log10 GI50 [31]: 5.23
- negative log10 GI50 [32]: 5.02
- negative log10 GI50 [33]: 5.31
- negative log10 GI50 [34]: 5.21
- negative log10 GI50 [35]: 5.70
- negative log10 GI50 [36]: 5.33
- negative log10 GI50 [37]: 5.34
- negative log10 GI50 [38]: 5.06
- negative log10 GI50 [39]: 5.20
- negative log10 GI50 [40]: 5.74
- negative log10 GI50 [41]: 5.72
- negative log10 GI50 [42]: 5.19
- GI50 [43]: >1 mg/L
- GI50 [44]: >1 mg/L
- GI50 [45]: >1 mg/L
- GI50 [46]: >1 mg/L
- GI50 [47]: 0.77 mg/L
- GI50 [48]: >1 mg/L
- Minimum inhibitory concentration [49]: * (No inhibition at 100 μg/disk)
- Minimum inhibitory concentration [50]: * (No inhibition at 100 μg/disk)
- Minimum inhibitory concentration [51]: * (No inhibition at 100 μg/disk)
- Minimum inhibitory concentration [52]: * (No inhibition at 100 μg/disk)
- Minimum inhibitory concentration [53]: * (No inhibition at 100 μg/disk)
- Minimum inhibitory concentration [54]: * (No inhibition at 100 μg/disk)
- Minimum inhibitory concentration [55]: * (No inhibition at 100 μg/disk)
- Minimum inhibitory concentration [56]: * (No inhibition at 100 μg/disk)
- Minimum inhibitory concentration [57]: * (No inhibition at 100 μg/disk)
- Minimum inhibitory concentration [58]: * (No inhibition at 100 μg/disk)
- Minimum inhibitory concentration [59]: 0.0975-0.195 μg/disk
- Minimum inhibitory concentration [60]: 0.39-0.78 μg/disk

Molecule: CC1=C(N)C(=O)c2c(ccnc2C)C1=O [Cribrostatin 1, cribrostatin 1, reference compound]
- Minimum inhibitory concentration [49]: * (No inhibition at 100 μg/disk)
- Minimum inhibitory concentration [50]: * (No inhibition at 100 μg/disk)
- Minimum inhibitory concentration [51]: * (No inhibition at 100 μg/disk)
- Minimum inhibitory concentration [52]: * (No inhibition at 100 μg/disk)
- Minimum inhibitory concentration [53]: * (No inhibition at 100 μg/disk)
- Minimum inhibitory concentration [54]: * (No inhibition at 100 μg/disk)
- Minimum inhibitory concentration [55]: * (No inhibition at 100 μg/disk)
- Minimum inhibitory concentration [56]: * (No inhibition at 100 μg/disk)
- Minimum inhibitory concentration [57]: * (No inhibition at 100 μg/disk)
- Minimum inhibitory concentration [58]: * (No inhibition at 100 μg/disk)
- Minimum inhibitory concentration [59]: 0.39-0.78 μg/disk
- Minimum inhibitory concentration [60]: 0.39-0.78 μg/disk
